Laboratory results published in the NIST ThermoML archive (doi:10.1007/s10765-009-0602-6).

Test: molar heat capacity at constant volume; xn = mol fraction of the nth substance listed
Conditions: Fluid (supercritical or subcritical phases), isochoric heat capacity, x1 = 0.2607

N [ammonia] + O
Conditions | molar heat capacity at constant volume [J/K/mol]
602.99 K, Mass density=227.54 kg/m3 | 102.11
602.99 K, Mass density=230.31 kg/m3 | 103.53
602.99 K, Mass density=311.19 kg/m3 | 92.66
602.99 K, Mass density=342.18 kg/m3 | 84.9
603.01 K, Mass density=218.92 kg/m3 | 92.95
603.08 K, Mass density=205.58 kg/m3 | 71.27
603.08 K, Mass density=214.83 kg/m3 | 91.92
603.08 K, Mass density=218.92 kg/m3 | 93.46
603.08 K, Mass density=224.53 kg/m3 | 102.11
603.08 K, Mass density=227.54 kg/m3 | 94.83
603.08 K, Mass density=230.31 kg/m3 | 97.85
603.08 K, Mass density=311.19 kg/m3 | 88.26
603.1 K, Mass density=214.83 kg/m3 | 85.33
603.16 K, Mass density=205.58 kg/m3 | 70.95
603.16 K, Mass density=227.54 kg/m3 | 89.2
603.16 K, Mass density=230.31 kg/m3 | 92.7
603.16 K, Mass density=311.19 kg/m3 | 87
603.17 K, Mass density=224.53 kg/m3 | 98.9
603.17 K, Mass density=243.98 kg/m3 | 88.9
603.17 K, Mass density=260.02 kg/m3 | 88.9
603.25 K, Mass density=205.58 kg/m3 | 73.52
603.25 K, Mass density=224.53 kg/m3 | 95.33
603.25 K, Mass density=227.54 kg/m3 | 90.78
603.25 K, Mass density=311.19 kg/m3 | 89.86
603.26 K, Mass density=230.31 kg/m3 | 91.49
603.26 K, Mass density=243.98 kg/m3 | 86.61
603.26 K, Mass density=260.02 kg/m3 | 86.61
603.33 K, Mass density=224.53 kg/m3 | 94.9
603.34 K, Mass density=205.58 kg/m3 | 69.68
603.34 K, Mass density=243.98 kg/m3 | 87.69
603.34 K, Mass density=260.02 kg/m3 | 87.69
603.42 K, Mass density=205.58 kg/m3 | 67.87
603.42 K, Mass density=224.53 kg/m3 | 95.2
603.42 K, Mass density=311.19 kg/m3 | 88.62
603.43 K, Mass density=243.98 kg/m3 | 88.17
603.43 K, Mass density=260.02 kg/m3 | 88.17
603.51 K, Mass density=205.58 kg/m3 | 72.19
603.51 K, Mass density=243.98 kg/m3 | 85.63
603.51 K, Mass density=260.02 kg/m3 | 85.63
603.58 K, Mass density=243.98 kg/m3 | 83.27
603.58 K, Mass density=260.02 kg/m3 | 83.27
603.59 K, Mass density=205.58 kg/m3 | 69.01
603.59 K, Mass density=227.54 kg/m3 | 89.22
603.6 K, Mass density=214.83 kg/m3 | 85.67
603.67 K, Mass density=230.31 kg/m3 | 84.99
603.68 K, Mass density=214.83 kg/m3 | 84.57
603.68 K, Mass density=227.54 kg/m3 | 87.34
603.69 K, Mass density=243.98 kg/m3 | 85.13
603.69 K, Mass density=260.02 kg/m3 | 85.13
603.76 K, Mass density=227.54 kg/m3 | 89.27
603.77 K, Mass density=214.83 kg/m3 | 81.81
603.77 K, Mass density=218.92 kg/m3 | 89.86
603.78 K, Mass density=243.98 kg/m3 | 82.7
603.78 K, Mass density=260.02 kg/m3 | 82.7
603.85 K, Mass density=224.53 kg/m3 | 94
603.85 K, Mass density=227.54 kg/m3 | 85.53
603.86 K, Mass density=218.92 kg/m3 | 86.91
603.86 K, Mass density=260.02 kg/m3 | 83.32
603.92 K, Mass density=214.83 kg/m3 | 84.57
603.93 K, Mass density=227.54 kg/m3 | 84.41
603.94 K, Mass density=224.53 kg/m3 | 94.9
603.94 K, Mass density=230.31 kg/m3 | 86.75
604.02 K, Mass density=224.53 kg/m3 | 91.83
604.02 K, Mass density=227.54 kg/m3 | 87.55
604.04 K, Mass density=214.83 kg/m3 | 80.85
604.09 K, Mass density=214.83 kg/m3 | 82.56
604.11 K, Mass density=224.53 kg/m3 | 94.23
604.11 K, Mass density=227.54 kg/m3 | 83.91
604.12 K, Mass density=230.31 kg/m3 | 81.87
604.19 K, Mass density=224.53 kg/m3 | 93.25
604.19 K, Mass density=227.54 kg/m3 | 84.67
604.2 K, Mass density=214.83 kg/m3 | 82.1
604.28 K, Mass density=214.83 kg/m3 | 79.51
604.28 K, Mass density=224.53 kg/m3 | 89.96
604.28 K, Mass density=227.54 kg/m3 | 86.4
604.31 K, Mass density=230.31 kg/m3 | 80.09
604.36 K, Mass density=224.53 kg/m3 | 91.15
604.43 K, Mass density=230.31 kg/m3 | 85.06
604.45 K, Mass density=224.53 kg/m3 | 90.84
604.52 K, Mass density=230.31 kg/m3 | 82.6
605.13 K, Mass density=329 kg/m3 | 85.88
605.22 K, Mass density=329 kg/m3 | 88.22
